For orientation: pIC50 means the negative decadic logarithm of the IC50, by convention in mol/L.

One assay has as its system H1299 (NSCLC) cell line. Briefly: Cancer cell cytotoxicity assay (Calcein AM / Cell Titer-Glo), H1299. The assay is classed as cell-based, human. Here is the method:
(§1) Compounds of the invention and comparative compounds were assayed in three cancer cell lines to confirm cytotoxic activity and to set a range of concentrations to use in subsequent assays. All cell lines were maintained in RPMI medium 1640 supplemented with 10% (wt/vol) fetal bovine serum and penicillin-streptomycin (100 units/ml and 100 μg/ml). Cells were routinely checked for microbial or mycoplasma contamination and if necessary replaced. Cells were harvested by trypsinization using 0.25% trypsin and 0.1% EDTA and then counted in a ViCell XR coulter counter in duplicate, before and after dilution for assay plating. Between four to nine different types of human cancer cells were plated at a density of 10,000-15,000 cells per well of each 96-well black tissue culture treated microtiter plate, then were grown for 1 hour at 37° C. with 5% CO2/95% air in a humidified incubator to allow cells to attach before compound addition. Compound stocks (100×) were prepared in 96-well V-bottom polypropylene microtiter plates. Five serial (1:2) dilutions were made with anhydrous DMSO at 100× the final concentration used in the assay. The individual wells in compound-containing […] well plates were diluted 1:10 with complete cell culture medium and the 10× (10 μL) stocks were added to 90 μl of cells in each plate to ensure full mixing of stocks with culture media by using a Biomek FX liquid handler with 96-well head. Doxorubicin was used as the control to monitor the behavior of each cell line. Cells were incubated with the compounds for 3 to 4 days before fluorescence and luminescence reading. Test plates were removed from the incubator and washed once in sterile PBS to remove serum containing calcium esterases. Calcein AM (acetoxymethyl ester) reagent was added and the cells were incubated for 30 min at 37° C. Plates were read for emission by using a fluorescein filter (excitation 485 nm, emission 535 nm). An equal volume (30 μL) of Cell Titer-Glo reagent (Promega Corporation, Inc.) was added and incubated for 10 min at room temperature with gentle agitation to lyse the cells. Each plate was re-read for luminescence to confirm the inhibition observed in the fluorescent […] assay as a measure of cell viability. The cancer cell cytotoxicity assays were run in triplicate using ≧5 different drug concentrations, and the data were analyzed to establish statistical significance and a valid IC50 value for inhibition of cell growth, based on ≧2 log differences in drug effect.
(§2) The cancer cell cytotoxicities (determined substantially according to the method of Example 5) of various compounds of the invention and comparative compounds as determined in four to five different human cancer cell lines are shown in Table 1. The structures of the compounds listed are found in FIGS. 2-4.

Assay [1] concerns NCI-H460 (NSCLC) cell line. Briefly: Cancer cell cytotoxicity assay (Calcein AM / Cell Titer-Glo), NCI-H460. The assay is classed as cell-based, human. As to the method:
as §1, §2

Assay [2] relates to SKOV3 (Ovarian) cell line. Kind of assay: Cancer cell cytotoxicity assay (Calcein AM / Cell Titer-Glo), SKOV3. The assay is classed as cell-based, human. Here is the method: as §1, §2
Assay [3] concerns A549 (NSCLC) cell line. Briefly: Cancer cell cytotoxicity assay (Calcein AM / Cell Titer-Glo), A549. The assay is classed as cell-based, human. Here is the method: as §1, §2
Assay [4] concerns HT29 (Colorectal) cell line. Briefly: Cancer cell cytotoxicity assay (Calcein AM / Cell Titer-Glo), HT29. The assay is classed as cell-based, human. Here is the method: as §1, §2
The test system of a further assay is human cancer cell lines. Briefly: Cancer cell cytotoxicity, summary over four to five human cancer cell lines. The assay is classed as cell-based. The settings on record: read-out: IC50 values (cancer cell cytotoxicity). As to the method:
as §1, §2

In assay [5] the test system is SKOV3 (Ovarian) cell line. The settings on record: footnote 2: data from Langenhan et al. 2005; cited from earlier work.
The test system of assay [6] is NCI-H460 (NSCLC) cell line. The settings on record: footnote 2: data from Langenhan et al. 2005; cited from earlier work.
Assay [7] concerns A549 (NSCLC) cell line. The settings on record: footnote 2: data from Langenhan et al. 2005; cited from earlier work.
Where [8] appears, read: Homo sapiens, NCI-H1299, NSCLC, footnote 6: determined at same time as CEN08-243 and -244.
[9] abbreviates: Homo sapiens, NCI-H460, NSCLC, footnote 6: determined at same time as CEN08-243 and -244.
Where [10] appears, read: Homo sapiens, SK-OV-3, Ovarian, footnote 6: determined at same time as CEN08-243 and -244.
Setting [11] is: Homo sapiens, A549, NSCLC, footnote 6: determined at same time as CEN08-243 and -244.
The mark [12] stands for this setting: NSCLC, footnote 7: determined at same time as CEN08-180.
Setting [13] is: Ovarian, assay set not specified.
The mark [14] stands for this setting: NSCLC, footnote 4: determined at same time as CEN08-177 and -178.

pIC50: −log10 of the molar value. Read-outs that look alike come from different tables or passages of the source.

For `C[C@@H]1O[C@@H](O[C@@H]2C=C3CC[C@@H]4[C@H](CC[C@]5(C)[C@@H](c6ccc(=O)oc6)CC[C@]45O)[C@@]3(C)CC2)[C@H](O)[C@H](O)[C@H]1O` [proscillaridin, reference compound], the pIC50 is 8.10 in the assay with H1299 (NSCLC) cell line (setting [8]); 8.40 in the assay on H1299 (NSCLC) cell line (Homo sapiens, NCI-H1299, NSCLC, footnote 7: determined at same time as CEN08-180); 8.52 in the assay with H1299 (NSCLC) cell line (Homo sapiens, NCI-H1299, NSCLC, footnote 5: determined at same time as CEN08-193); 7.92 in assay [1] (setting [9]); 7.96 in assay [1] (Homo sapiens, NCI-H460, NSCLC, footnote 7: determined at same time as CEN08-180); 8.30 in [1] (Homo sapiens, NCI-H460, NSCLC, footnote 5: determined at same time as CEN08-193). For the same compound, the pIC50 was 7.92 in assay [2] (Homo sapiens, SK-OV-3, Ovarian, assay set not specified); 7.82 in assay [2] (setting [10]); 7.96 in assay [2] (Homo sapiens, SK-OV-3, Ovarian, footnote 7: determined at same time as CEN08-180); 7.35 in [2] (Homo sapiens, SK-OV-3, Ovarian, footnote 5: determined at same time as CEN08-193); 7.92 with A549 (NSCLC) cell line [3] (setting [11]); 8.52 in the assay with A549 (NSCLC) cell line [3] (Homo sapiens, A549, NSCLC, footnote 7: determined at same time as CEN08-180). Moreover, the pIC50 was 8.70 with A549 (NSCLC) cell line [3] (Homo sapiens, A549, NSCLC, footnote 5: determined at same time as CEN08-193); 8.00 in assay [4] (Homo sapiens, HT-29, Colorectal, footnote 7: determined at same time as CEN08-180); 8.15 in [4] (Homo sapiens, HT-29, Colorectal, footnote 5: determined at same time as CEN08-193).
In the case of “(3β)-3-N-methoxyaminoscillarenin [CEN08-180]”, the pIC50 is 8.10 in the assay on H1299 (NSCLC) cell line (setting [12]); 7.89 in assay [1] (setting [12]); 7.47 in assay [2] (Ovarian, footnote 7: determined at same time as CEN08-180); 8.52 with A549 (NSCLC) cell line [3] (setting [12]); 7.59 in [4] (Colorectal, footnote 7: determined at same time as CEN08-180).
As for `CON(C1CCC2(C)C(CCC3C2CCC2(C)C(C4=CC(=O)OC4)CCC32O)C1)C1OCC(N)C(O)C1O` (centres unmarked) [CEN08-242], the pIC50 with H1299 (NSCLC) cell line (NSCLC, assay set not specified) is 6.80; in [1] (NSCLC, assay set not specified) it was 7.13; in [2] (setting [13]), 6.64; in the assay on A549 (NSCLC) cell line [3] (NSCLC, assay set not specified) it was 7.30.
As for `CON(C1C=C2CCC3C(CCC4(C)C(c5ccc(=O)oc5)CCC34O)C2(C)CC1)C1OCC(O)C(O)C1O` (centres unmarked) [CEN08-185], the pIC50 was 8.30 in the assay on H1299 (NSCLC) cell line (NSCLC, assay set not specified); 8.05 in assay [1] (NSCLC, assay set not specified); 7.82 in assay [2] (setting [13]); 8.70 in the assay with A549 (NSCLC) cell line [3] (NSCLC, assay set not specified); 7.89 in assay [4] (Colorectal, assay set not specified).
Consider `CON(C1C=C2CCC3C(CC[C@]4(C)[C@@H](c5ccc(=O)oc5)CC[C@]34O)[C@@]2(C)CC1)[C@H]1OC[C@H](N)[C@H](O)C1O` (stereo partly drawn) [CEN08-243, (3S)-3-N-methoxyamino-scillarenin-L-neo-4-amino-4-deoxyxyloside], for which the pIC50 was 8.15 in the assay on H1299 (NSCLC) cell line (setting [8]); 8.30 in assay [1] (setting [9]); over 7.10 in the assay with human cancer cell lines; 8.30 in assay [2] (setting [10]); 8.52 in the assay on A549 (NSCLC) cell line [3] (setting [11]).
With `CON(C1OC[C@H](N)[C@H](O)[C@@H]1O)[C@@H]1C=C2CCC3C(CC[C@]4(C)[C@@H](c5ccc(=O)oc5)CC[C@]34O)[C@@]2(C)CC1` (stereo partly drawn) [CEN08-244, (3S)-3-N-methoxyamino-scillarenin-L-neo-4-amino-4-deoxyriboside], the pIC50 in the assay on H1299 (NSCLC) cell line (setting [8]) was 8.00; in assay [1] (setting [9]), 8.22; in the assay with human cancer cell lines it was over 7.10; in assay [2] (setting [10]), 8.22; in the assay on A549 (NSCLC) cell line [3] (setting [11]), 8.40.
`CC12CCC(OC3OCC(O)C(O)C3O)CC1CCC1C2CCC2(C)C(C3=CC(=O)OC3)CCC12O` (centres unmarked) [CEN08-177]: the pIC50 in the assay with H1299 (NSCLC) cell line (setting [14]) was 7.40; in [1] (setting [14]), 7.70; in [2] (Ovarian, footnote 4: determined at same time as CEN08-177 and -178), 7.10; in the assay with A549 (NSCLC) cell line [3] (setting [14]), 7.70; in [4] (Colorectal, footnote 4: determined at same time as CEN08-177 and -178), 7.15.
Consider `CON[C@H]1CC[C@@]2(C)[C@H](CC[C@@H]3[C@@H]2CC[C@]2(C)[C@@H](C4=CC(=O)OC4)CC[C@]32O)C1` [(3β)-3-N-methoxyaminodigitoxigenin], for which the results for the negative logarithm of the IC50 (pIC50) (in assay [5]; in assay [6]; in the assay on A549 (NSCLC) cell line [7]) were 5.52, 5.62 and 5.08, respectively.

The record behind these values is US8703723B2, “Glycoside compounds and pharmaceutical compositions thereof” (Centrose, LLC, priority 2009, dated 2014).
